How the values were obtained:
[1] = tested on: neurotransmitter receptors; assay: Pharmacological profile in vitro (overall statement)
Description: (§1) ln vitro affinity for neurotransmitter receptors: The binding data collected below were either obtained by CE REP (128, rue Danton, 92500 Rueil-Malmaison, France) or at Solvay Pharmaceuticals B.V. (C. J. van Houtenlaan 36, 1381 CP Weesp, The Netherlands), using well documented standard procedures. The affinities for dopamine-D2 and 5-HT1A receptors for instance, were measured as described by Creese (1997) and Gozlan (1983) respectively.
(§2) In vitro (ant)agonistic activity at human D2 receptors and 5-HT1A receptors was measured according to the methods described by Solomon (1974) and Weiss (1985) respectively, on the formation of adenylate cyclase in CHO cell-lines expressing these cloned receptors.

Dopamine-D1 = Dopamine-D1 (Homo sapiens, UniProt P21728); assay: In vitro receptor affinity, Dopamine-D1; type: binding; conditions: radioligand [3H]-SCH 23390, read-out: K1 (in vitro receptor affinity)
Description: as §1

Serotonin-5-HT4 = Serotonin-5-HT4 (Homo sapiens, UniProt Q13639); assay: In vitro receptor affinity, Serotonin-5-HT4; type: binding; conditions: radioligand [3H]-GR 113808, read-out: K1 (in vitro receptor affinity)
Description: as §1

Dopamine-D2 = Dopamine-D2 (Homo sapiens, UniProt P14416); assay: In vitro receptor affinity, Dopamine-D2; type: binding; conditions: radioligand [3H]-spiperone, read-out: K1 (in vitro receptor affinity)
Description: as §1

Dopamine-D4 = Dopamine-D4 (Homo sapiens, UniProt P21917); assay: In vitro receptor affinity, Dopamine-D4; type: binding; conditions: radioligand [3H]-spiperone, read-out: K1 (in vitro receptor affinity)
Description: as §1

[2] = Partition coefficient, experimental (Log P); type: physicochemical; conditions: at pH 7.0
Dopamine-D3 = Dopamine-D3 (Homo sapiens, UniProt P35462); assay: In vitro receptor affinity, Dopamine-D3; type: binding; conditions: radioligand [3H]-spiperone, read-out: K1 (in vitro receptor affinity)
Description: as §1

[3] = Pharmacological profile in vivo (overall statement); conditions: in vivo
Description: Lower lip retraction, an in vivo animal model for serotonin 5-HT1A receptor agonistic activity, was measured according to the method described by Berendsen (1989); Apomorphine-induced climbing behaviour in mice, an in vivo animal model for dopamine-D2 receptor antagonistic activity, was determined according to the method described by Costall (1978).

Serotonin-5-HT2A = Serotonin-5-HT2A (Homo sapiens, UniProt P28223); assay: In vitro receptor affinity, Serotonin-5-HT2A; type: binding; conditions: radioligand [3H]-ketanserin, read-out: K1 (in vitro receptor affinity)
Description: as §1

human 5-HT1A receptors = molecular target: T1, human 5-HT1A receptors (Homo sapiens, UniProt P08908); assay: In vitro functional agonism at 5-HT1A receptors, adenylate cyclase in CHO cell-lines; type: cell-based; conditions: CHO cell-lines expressing cloned receptor; read-out: Agonism human 5-HT1A receptors, pEC50 (converted)
T1 construct: expressed in transfected cells; host or cells: CHO
Description: as §2

[4] = Toxicological studies, plasma of rats; type: in vivo; conditions: rats dosed with SLV313
From the text: (§3) Psychotropic pyridylmethyl -piperazine and -piperidine derivatives are disclosed in EP 0 908 458. […] By now it is very well known that N-oxides are metabolites of many tertiary amines, and in most cases are also intermediates between tertiary amines and their N-dealkylated analogs. Most, but not all, tertiary amine drugs give rise to N-oxides. For instance, this is the case with morphine, imipramine, promazine, cinnarizine and nicotine, to name just a few. How much N-oxidation takes place varies from trace amounts to a near quantitative conversion. […] The most famous example of these is chlordiazepoxide (Librium®), one of the most frequently used drugs in psychiatric and general medicine. […] Some N-oxides undergo nearly quantitative reductive conversion to the corresponding tertiary amines and in other cases the conversion is a mere trace reaction or even completely absent (Bickel, 1969). Thus, the formation of N-oxides and their corresponding tertiary amines is unpredictable. […] When they are, the reaction can be a mere trace or nearly quantitative.

[5] = Metabolism studies in humans; type: in vivo; conditions: in man (also not in any animal species used in toxicology studies)
From the text: as §3

[6] = Plasma concentrations in mice after i.v. or p.o. administration, blood analyzed by LC-MS; type: in vivo; conditions: i.v. or p.o.
Description: The LC-MS system consists of 2 Perkin elmer series 200 micro pumps. The pumps were connected to each other by a 50 pI tee mixer, and connected to a Gilson 215 auto sampler. The method was as follows:
The auto sampler was connected to a Waters Atlantis C18 30*4.6 mm column with 3 μm particles. The column was thermo stated in a Perkin Elmer series 200 column oven at 40° C. The column was connected to a Perkin Elmer series 200 UV meter with a 2.7 μl flowcel. The wavelength was set to 254 nm. The UV meter was connected to a Sciex API 150EX mass spectrometer. The mass spectrometer had the following parameters: Scanrange:150-900 a.m.u., polarity: positive; scan mode: profile; resolution Q1: UNIT; step size: 0.10 a.m.u.; time per scan: 0.500 sec; NEB: 10; CUR: 10; IS: 5200; TEM: 325; DF: 30; FP: 225 and EP: 10. The light scattering detector was connected to the Sciex API 150. The light scattering detector was a Sedere Sedex 55 operating at 50° C. and 3 bar N2. The complete system was controlled by a G3 powermac.
For oral (p.o.) administration: to the desired quantity (0.5-5 mg) of the solid test compound in a glass tube, some glass beads were added and the solid was milled by vortexing for 2 minutes. After addition of 1 ml of a solution of 1% methylcellulose in water and 2% (v/v) of Poloxamer 188 (Lutrol F68), the compound was suspended by vortexing for 10 minutes. The pH was adjusted to 7. […]

[7] = Toxicological studies, plasma of dogs; type: in vivo; conditions: dogs dosed with SLV313
From the text: as §3

Dopamine-D4, sequence (P21917 whole entry): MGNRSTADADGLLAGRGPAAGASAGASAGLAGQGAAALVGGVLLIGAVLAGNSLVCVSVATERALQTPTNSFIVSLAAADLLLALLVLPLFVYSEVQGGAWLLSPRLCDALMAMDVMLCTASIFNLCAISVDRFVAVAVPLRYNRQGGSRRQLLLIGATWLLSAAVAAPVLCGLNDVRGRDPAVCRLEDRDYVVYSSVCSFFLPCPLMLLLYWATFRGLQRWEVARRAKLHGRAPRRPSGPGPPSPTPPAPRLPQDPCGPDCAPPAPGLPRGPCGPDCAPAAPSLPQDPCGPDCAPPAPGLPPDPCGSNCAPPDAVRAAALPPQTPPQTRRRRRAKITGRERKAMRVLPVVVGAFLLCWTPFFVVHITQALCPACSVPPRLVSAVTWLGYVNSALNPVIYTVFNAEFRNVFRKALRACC
Serotonin-5-HT2A, sequence (P28223 whole entry): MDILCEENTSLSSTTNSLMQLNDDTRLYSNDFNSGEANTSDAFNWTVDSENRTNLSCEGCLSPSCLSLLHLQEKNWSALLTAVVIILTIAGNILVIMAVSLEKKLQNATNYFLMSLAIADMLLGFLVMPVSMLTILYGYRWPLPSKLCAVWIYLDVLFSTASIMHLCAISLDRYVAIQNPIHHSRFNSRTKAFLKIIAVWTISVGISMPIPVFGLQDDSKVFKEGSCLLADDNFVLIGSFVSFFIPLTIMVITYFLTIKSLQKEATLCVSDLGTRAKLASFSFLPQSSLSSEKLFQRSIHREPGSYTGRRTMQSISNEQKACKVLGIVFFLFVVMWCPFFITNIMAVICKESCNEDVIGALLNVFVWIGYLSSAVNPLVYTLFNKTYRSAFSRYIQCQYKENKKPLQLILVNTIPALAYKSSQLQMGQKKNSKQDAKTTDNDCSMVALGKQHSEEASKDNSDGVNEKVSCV
Dopamine-D1, sequence (P21728 whole entry): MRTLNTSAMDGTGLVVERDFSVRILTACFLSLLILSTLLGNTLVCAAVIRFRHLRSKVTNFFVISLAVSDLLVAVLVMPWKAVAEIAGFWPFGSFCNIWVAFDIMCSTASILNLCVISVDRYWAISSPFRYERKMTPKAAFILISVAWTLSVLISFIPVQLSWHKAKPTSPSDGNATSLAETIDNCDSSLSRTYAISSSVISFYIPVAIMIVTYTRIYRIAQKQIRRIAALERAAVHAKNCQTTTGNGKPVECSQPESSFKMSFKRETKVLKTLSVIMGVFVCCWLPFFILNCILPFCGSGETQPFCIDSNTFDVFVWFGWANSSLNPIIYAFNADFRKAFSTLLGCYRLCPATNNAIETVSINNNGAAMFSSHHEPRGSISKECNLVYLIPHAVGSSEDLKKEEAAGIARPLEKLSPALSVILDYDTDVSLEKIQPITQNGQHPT
Serotonin-5-HT4, sequence (Q13639 whole entry): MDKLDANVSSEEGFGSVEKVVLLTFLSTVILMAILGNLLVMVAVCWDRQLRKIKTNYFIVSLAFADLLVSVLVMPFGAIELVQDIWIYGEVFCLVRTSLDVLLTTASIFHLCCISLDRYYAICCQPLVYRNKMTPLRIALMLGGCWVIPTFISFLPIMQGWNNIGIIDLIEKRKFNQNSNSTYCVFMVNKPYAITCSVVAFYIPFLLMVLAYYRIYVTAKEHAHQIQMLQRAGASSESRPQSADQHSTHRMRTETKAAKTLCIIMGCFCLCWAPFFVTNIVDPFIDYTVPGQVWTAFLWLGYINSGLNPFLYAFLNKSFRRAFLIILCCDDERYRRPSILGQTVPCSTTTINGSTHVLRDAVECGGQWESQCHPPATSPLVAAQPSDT
T1 sequence (P08908 whole entry): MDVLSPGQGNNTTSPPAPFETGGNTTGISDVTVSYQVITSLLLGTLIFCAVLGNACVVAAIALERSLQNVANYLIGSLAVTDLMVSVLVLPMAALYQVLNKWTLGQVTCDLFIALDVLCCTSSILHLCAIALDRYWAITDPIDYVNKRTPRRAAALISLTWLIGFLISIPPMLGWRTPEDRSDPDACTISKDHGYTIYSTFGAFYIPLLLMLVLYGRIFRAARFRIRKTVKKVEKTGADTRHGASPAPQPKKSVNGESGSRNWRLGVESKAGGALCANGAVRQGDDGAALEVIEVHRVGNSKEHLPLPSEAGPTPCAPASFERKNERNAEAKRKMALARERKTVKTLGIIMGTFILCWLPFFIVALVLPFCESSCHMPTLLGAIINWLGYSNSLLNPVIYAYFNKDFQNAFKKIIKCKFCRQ
Dopamine-D3, sequence (P35462 whole entry): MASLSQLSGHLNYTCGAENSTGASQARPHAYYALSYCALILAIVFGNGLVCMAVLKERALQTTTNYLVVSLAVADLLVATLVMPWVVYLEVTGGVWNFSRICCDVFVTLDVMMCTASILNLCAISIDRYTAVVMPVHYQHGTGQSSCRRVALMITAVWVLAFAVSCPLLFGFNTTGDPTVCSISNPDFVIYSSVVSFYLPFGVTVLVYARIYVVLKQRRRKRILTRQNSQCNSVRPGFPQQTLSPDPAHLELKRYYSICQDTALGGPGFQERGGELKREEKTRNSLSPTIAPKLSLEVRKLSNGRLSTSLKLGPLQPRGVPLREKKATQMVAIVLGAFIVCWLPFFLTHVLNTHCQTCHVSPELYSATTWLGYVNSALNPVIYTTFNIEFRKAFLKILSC
Dopamine-D2, sequence (P14416 whole entry): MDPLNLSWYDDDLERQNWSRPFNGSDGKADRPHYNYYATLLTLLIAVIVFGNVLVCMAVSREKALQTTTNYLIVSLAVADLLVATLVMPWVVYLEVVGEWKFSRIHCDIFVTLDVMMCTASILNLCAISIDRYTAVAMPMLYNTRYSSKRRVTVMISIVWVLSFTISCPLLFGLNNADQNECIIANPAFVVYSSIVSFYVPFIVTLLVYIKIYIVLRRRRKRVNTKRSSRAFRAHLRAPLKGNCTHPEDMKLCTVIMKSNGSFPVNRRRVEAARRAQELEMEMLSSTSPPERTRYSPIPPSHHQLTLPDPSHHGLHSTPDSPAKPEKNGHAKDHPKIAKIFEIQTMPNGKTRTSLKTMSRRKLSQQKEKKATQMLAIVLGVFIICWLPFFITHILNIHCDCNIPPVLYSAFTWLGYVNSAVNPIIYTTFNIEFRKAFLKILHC

SMILES	pharmacological profile/activity in vitro relative to parent SLV313 [1]	Ki (Dopamine-D1) [nM]	melting point [°C]	Ki (Serotonin-5-HT4) [nM]	Ki (Dopamine-D2) [nM]	Ki (Dopamine-D4) [nM]	logP [2]	Ki (Dopamine-D3) [nM]	pharmacological profile/potency in vivo relative to SLV313 [3]	Ki (Serotonin-5-HT2A) [nM]	EC50 (human 5-HT1A receptors) [nM]	pyridine-N-oxide in plasma [4]	piperazine-N-oxide as a metabolite [5]	metabolism to piperazine-N-oxide [6]	pyridine-N-oxide in plasma [7]
[O-][n+]1cc(CN2CCN(c3cccc4c3OCCO4)CC2)cc(-c2ccc(F)cc2)c1 [pyridine N-oxide, 1-(2,3-dihydro-1,4-benzodioxin-5-yl)-4-[[5-(4-fluorophenyl)-1-oxido-3-pyridinyl]methyl]-piperazine]	identical	> 10000	171	> 10000	5	20	2.6	8	identical	500	1.58				
Fc1ccc(-c2cncc(CN3CCN(c4cccc5c4OCCO5)CC3)c2)cc1 [SLV313, 3-[[4-(2,3-dihydro-1,4-benzodioxin-5-yl)-1-piperazinyl]methyl]-5-(4-fluorophenyl)pyridine, reference compound]		> 10000		> 1000		10	3.6			250	1.26	could not be demonstrated	has not been detected as a metabolite	not metabolized to its piperazine-N-oxide	could not be demonstrated

Reference: patent publication US20070275977A1, “N-OXIDES OF PYRIDYLMETHYL -PIPERAZINE AND -PIPERIDINE DERIVATIVES” (priority 2006, published 2007)
